From paper PMC7597410, “Targeting breast cancer metabolism with a novel inhibitor of mitochondrial ATP synthesis” (Oncotarget, 2020)

Biological target: T1, mitochondrial ATP synthase subunit alpha (α-F1-ATP synthase, ATP5A) (Homo sapiens, UniProt P25705)
T1 construct: gene ATP5F1A; purified recombinant human α-F1-ATP synthase (CusaBio)
Assay: DSF Tm increase with purified recombinant α subunit ([…]~[…] CADD522, no Kd); the EC50 is from CETSA in MDA-MB-231 lysate; immunocaptured ATP synthase also inhibited at […]~[…]
Assay type: binding

T1 sequence (P25705 44-553): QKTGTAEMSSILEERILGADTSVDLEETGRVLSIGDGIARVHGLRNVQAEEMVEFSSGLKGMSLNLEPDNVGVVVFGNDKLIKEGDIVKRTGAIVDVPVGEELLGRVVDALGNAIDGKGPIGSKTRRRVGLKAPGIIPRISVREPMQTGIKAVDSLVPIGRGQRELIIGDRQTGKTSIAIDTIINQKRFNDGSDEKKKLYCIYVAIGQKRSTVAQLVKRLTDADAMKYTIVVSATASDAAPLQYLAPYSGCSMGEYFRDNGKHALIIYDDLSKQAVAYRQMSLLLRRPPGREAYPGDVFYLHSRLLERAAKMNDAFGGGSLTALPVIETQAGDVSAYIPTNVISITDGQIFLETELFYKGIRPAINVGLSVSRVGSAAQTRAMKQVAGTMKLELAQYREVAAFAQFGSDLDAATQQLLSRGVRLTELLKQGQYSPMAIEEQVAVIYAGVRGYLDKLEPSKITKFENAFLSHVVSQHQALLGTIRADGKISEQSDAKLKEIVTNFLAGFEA

## O=C(O)C1C2C=CC(C2)C1C(=O)Nc1ccc(Cl)c(Cl)c1 (stereo not shown) [CADD522]
  EC50: < 140 nM
